# Patent publication US9187497B2, “Substituted pyrido[3,2-e]pyrrolo[1,2-a]pyrazines as inhibitors of poly(ADP-ribose)polymerase (PARP)” (Takeda Phamaceutical Company Limited, priority 2009, dated 2015)
# What was measured:
# PARP = molecular target: T1, PARP (Homo sapiens, UniProt P09874); assay: PARP ELISA colorimetric assay of inhibition of PARP catalytic activity (IC50); assay type: biochemical; settings: pIC50=-log(IC50), IC50 in molar concentration; ELISA-based PARP kit, 10 minutes of catalysis
# T1 construct: purchased Trevigen 4684-096-01 (enzyme); kit 4684-096-K HT
# T1 sequence (P09874 whole entry): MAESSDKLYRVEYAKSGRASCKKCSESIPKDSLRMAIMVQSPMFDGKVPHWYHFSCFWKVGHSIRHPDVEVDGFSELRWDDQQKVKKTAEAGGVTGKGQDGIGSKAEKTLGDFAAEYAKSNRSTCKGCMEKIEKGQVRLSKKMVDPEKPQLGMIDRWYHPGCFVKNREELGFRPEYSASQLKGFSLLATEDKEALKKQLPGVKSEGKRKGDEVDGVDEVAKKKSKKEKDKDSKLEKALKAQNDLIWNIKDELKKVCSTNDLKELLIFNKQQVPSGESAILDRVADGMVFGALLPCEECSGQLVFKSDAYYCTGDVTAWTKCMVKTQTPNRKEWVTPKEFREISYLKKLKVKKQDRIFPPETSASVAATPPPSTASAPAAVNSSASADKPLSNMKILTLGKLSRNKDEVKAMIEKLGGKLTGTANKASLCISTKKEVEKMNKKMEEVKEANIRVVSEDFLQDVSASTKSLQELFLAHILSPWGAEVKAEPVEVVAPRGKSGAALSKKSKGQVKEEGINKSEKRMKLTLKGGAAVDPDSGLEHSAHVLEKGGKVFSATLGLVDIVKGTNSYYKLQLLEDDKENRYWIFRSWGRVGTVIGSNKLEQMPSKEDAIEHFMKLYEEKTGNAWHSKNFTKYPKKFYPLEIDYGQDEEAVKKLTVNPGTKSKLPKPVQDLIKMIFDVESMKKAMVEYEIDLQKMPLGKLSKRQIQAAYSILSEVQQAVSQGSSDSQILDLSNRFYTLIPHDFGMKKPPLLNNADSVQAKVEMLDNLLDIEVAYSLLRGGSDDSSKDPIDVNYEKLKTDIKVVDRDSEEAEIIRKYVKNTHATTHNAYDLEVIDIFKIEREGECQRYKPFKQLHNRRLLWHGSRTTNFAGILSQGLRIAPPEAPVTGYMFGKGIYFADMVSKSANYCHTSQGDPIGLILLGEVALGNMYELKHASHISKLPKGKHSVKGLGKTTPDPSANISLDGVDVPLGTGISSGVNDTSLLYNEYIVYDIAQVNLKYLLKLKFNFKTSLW
# In short: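 Human PARP was added as a 0.1 nM solution to histone-coated wells with compound for a 10-min ambient preincubation. The reaction was started with 100 μM NAD+ solution plus activated DNA and run 10 min. PAR formation was detected by anti-PAR ELISA, colorimetric. IC50 came from a 12-point, 3-fold gradient fitted by nonlinear least squares to a Hill equation.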
# Jurkat cell line = assay: PARP cellular chemopotentiation assay (MTS cell viability with and without TMZ); assay type: cell-based; settings: ratio of EC50 for inhibition of cell viability without and with 100 μM TMZ; Jurkat cells, 96 hours of treatment
# In short: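 Jurkat cells, 10,000/well, pre-cultured 24 h, then treated 96 h with serial compound dilutions (0.5% DMSO) with or without 100 μM TMZ. Viability by MTS conversion (OD490), normalized to DMSO controls; EC50 from curve fits, PF50 = EC50 without TMZ / EC50 with TMZ.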
IC50 (PARP) [nM],Structure (SMILES),PF50 (Jurkat cell line)
≤ 12.6,"COc1cc(C#N)ccc1N1CCN(Cc2cnc3c(c2)NC(=O)[C@@H]2CCCCN32)CC1 [Compound 118, (S)-3-methoxy-4-(4-((6-oxo-6,6a,7,8,9,10-hexahydro-5H-dipyrido[1,2-a:3′,2′-e]pyrazin-3-yl)methyl)piperazin-1-yl)benzonitrile]",>5000
≥ 50.1,"CC1CN(c2ccccn2)CCN1Cc1cnc2c(c1)NC(=O)[C@@H]1CCCN21 (stereo partly drawn) [Compound 120, (6aS)-3-((2-methyl-4-(pyridin-2-yl)piperazin-1-yl)methyl)-6a,7,8,9-tetrahydropyrido[3,2-e]pyrrolo[1,2-a]pyrazin-6(5H)-one]",≧0
≥ 50.1,"O=C1Nc2cc(CC3CCN(c4ccc(Cl)cc4)CC3)cnc2N2CCC[C@@H]12 [Compound 122, (S)-3-((1-(4-chlorophenyl)piperidin-4-yl)methyl)-6a,7,8,9-tetrahydropyrido[3,2-e]pyrrolo[1,2-a]pyrazin-6(5H)-one]",≧0
15.8 to 39.8,"N#Cc1ccc(N2CCN(Cc3cnc4c(c3)NC(=O)[C@@H]3CCCN43)CC2)cn1 [Compound 123, (S)-5-(4-((6-oxo-5,6,6a,7,8,9-hexahydropyrido[3,2-e]pyrrolo[1,2-a]pyrazin-3-yl)methyl)piperazin-1-yl)picolinonitrile]",>10
≥ 50.1,"CCNC(=O)c1cc(F)c(N2CCN(Cc3cnc4c(c3)NC(=O)[C@@H]3CCCN43)CC2)cc1F [Compound 124, (S)—N-ethyl-2,5-difluoro-4-(4-((6-oxo-5,6,6a,7,8,9-hexahydropyrido[3,2-e]pyrrolo[1,2-a]pyrazin-3-yl)methyl)piperazin-1-yl)benzamide]",≧0
≥ 50.1,"CCNC(=O)c1ccc(N2CCN(Cc3cnc4c(c3)NC(=O)[C@@H]3CCCN43)CC2)cc1F [Compound 125, (S)—N-ethyl-2-fluoro-4-(4-((6-oxo-5,6,6a,7,8,9-hexahydropyrido[3,2-e]pyrrolo[1,2-a]pyrazin-3-yl)methyl)piperazin-1-yl)benzamide]",≧0
15.8 to 39.8,"CCNC(=O)c1ccc(N2CCN(Cc3cnc4c(c3)NC(=O)[C@@H]3CCCN43)CC2)c(F)c1 [Compound 126, (S)—N-ethyl-3-fluoro-4-(4-((6-oxo-5,6,6a,7,8,9-hexahydropyrido[3,2-e]pyrrolo[1,2-a]pyrazin-3-yl)methyl)piperazin-1-yl)benzamide]",>5000
15.8 to 39.8,"CCNC(=O)c1ccc(N2CCN(Cc3cnc4c(c3)NC(=O)[C@@H]3CCCN43)CC2)c(Cl)c1 [Compound 127, (S)-3-chloro-N-ethyl-4-(4-((6-oxo-5,6,6a,7,8,9-hexahydropyrido[3,2-e]pyrrolo[1,2-a]pyrazin-3-yl)methyl)piperazin-1-yl)benzamide]",>500
≥ 50.1,"CNS(=O)(=O)c1ccc(N2CCN(Cc3cnc4c(c3)NC(=O)[C@@H]3CCCN43)CC2)cc1 [Compound 128, (S)—N-methyl-4-(4-((6-oxo-5,6,6a,7,8,9-hexahydropyrido[3,2-e]pyrrolo[1,2-a]pyrazin-3-yl)methyl)piperazin-1-yl)benzenesulfonamide]",≧0
15.8 to 39.8,"Cc1cc(C#N)ccc1N1CCN(Cc2cnc3c(c2)NC(=O)[C@@H]2CCCN32)CC1 [Compound 129, (S)-3-methyl-4-(4-((6-oxo-5,6,6a,7,8,9-hexahydropyrido[3,2-e]pyrrolo[1,2-a]pyrazin-3-yl)methyl)piperazin-1-yl)benzonitrile]",>500

Structure (SMILES),IC50 (PARP) [nM],PF50 (Jurkat cell line)
"Cc1cc(F)ccc1N1CCN(Cc2cnc3c(c2)NC(=O)[C@@H]2CCCN32)CC1 [Compound 130, (S)-3-((4-(4-fluoro-2-methylphenyl)piperazin-1-yl)methyl)-6a,7,8,9-tetrahydropyrido[3,2-e]pyrrolo[1,2-a]pyrazin-6(5H)-one]",15.8 to 39.8,>2000
